Laboratory results: patent US20070122830A1, “Prohibitin-directed diagnostics and therapeutics for cancer and chemotherapeutic drug resistance” (Aurelium BioPharma Inc., priority 2005, published 2007)

Test system: hematological tumor cells
Assay: Hematological tumor model in MHC-matched mice, prohibitin siRNA plus chemotherapy
Format: in vivo
Conditions: Example 8
Protocol: In order to determine whether targeting prohibitin is useful in treating a preexisting cancerous condition, MHC-matched mice, 5 to 7 weeks old, receive a subcutaneous (s.c.) injection of the cells 5×10^5 hematological tumor cells, and tumors are allowed to form. Tumor growth starting on the first day of treatment is measured by palpitation, and the volume of the xenograft is monitored every 4 days. Tumors are allowed to grow to a sufficient size (5.5 mm) for appropriate analysis of the effects of prohibitin treatment on tumor sensitivity to chemotherapeutic drugs. Mice are then treated with a prohibitin siRNA (3 μg daily for 16 days) designed to decrease the level of expression of prohibitin. […]
The animal's weight is measured every 4 days. Tumor growth starting on the first day of treatment is measured by palpitation and the volume of the xenograft is monitored every 4 days. […] Tumor tissue is excised from the mice and its weight is measured. […] Tumor cell count is determined by trypsinizing tumors in DMEM medium supplemented with 10% fetal bovine serum until cells are in free suspension. […]
Liposome formulations are produced as described previously (Shi et al. (2000) Proc. Natl. Acad. Sci. USA. 97(13): 7567-7572). […] The mean vesicle diameters are determined by quasielastic light scattering using a Microtrac Ultrafine Particle Analyzer (Leeds-Northrup, St. Petersburg, Fla.). […]

**Q.** “prohibitin siRNA: siRNA duplex to human prohibitin mRNA nt 425-443; sense 5′-GGAAGUGGUCUGUCUGUUAtt-3′, antisense 5′-UAACAGACAGACCACUUCCtt-3′ (sense GGAAGUGGUCUGUCUGUUATT; antisense UAACAGACAGACCACUUCCTT; chemistry not given here)” was tested. Which “sensitivity of hematological tumors to chemotherapeutic drug treatment” value (siRNA 3 μg daily for 16 days with taxol or doxorubicin) did it give?
**A.** The value was “increases the sensitivity”.

**Q.** What about the “prognosis (tumor size, tumor cells) vs targeting agent only or drug only” value (siRNA plus taxol or doxorubicin) of the same substance?
**A.** The value was “better prognosis (i.e., smaller tumor or fewer tumor cells)”.
